Reference: article PMC12144893, “Synthesis and Characterization of Photoswitchable Covalent Ligands for the β2‐Adrenoceptor” (Angewandte Chemie (International Ed. in English), 2025)
Where two headings read alike, the source gives them in different places.

Columns and labels:
human β2AR = target: T1, human β2AR (Homo sapiens, UniProt P07550); assay type: cell-based
T1 construct: host or cells: HEK-293T

[1] = UV/Vis spectra of E- and Z-isomers in Tris buffer; assay type: physicochemical; conditions: for λmax (E): E-isomer, Tris buffer 50 mM Tris, 1 mM EDTA, 1 mM MgCl2; for λmax (Z): Z-isomer, Tris buffer
Protocol: 1.4. Photophysical Characterization
1.4.1. UV/Vis Spectra and Cycle Performance
UV/Vis absorption spectra were measured to characterize the photophysical properties of the synthesized pho to switches. The pho to switches were diluted with TRIS buffer (50 m M Tris, 1 m M EDTA, 1 mM MgCl2, pH 7.4) to end up with a concentration of 10 µM + 0.5% DMSO. The spectra were measured in a quartz glass cuvette after different illuminations with LED modules. First, the solution was illuminated with 365 nm light for 10 s to switch to the Z -isomer. After measuring the UV/Vis spectrum of the Z-isomer (purple curve), the solution was illuminated with 528 nm light for 120 s and the spectrum for the E -isomer (black curve) was measured. This cycle was repeated ten times to show the stability and repeatability of switching the compound. The isosbestic points could be determined from an overlay of the UV/Vis spectra of both isomers.
(§1) Wavelength λ [nm] Cycle Number
Figure S10. UV/Vis spectr um and cycle performance of 1.
Figure S11. UV/Vis spectr um and cycle performance of 2.
(also on this page, place not known: photoswitches. photoswitches mM mM MgCl 2, 0.5 % E-isomer coul d spectrum spectrum 600 0,15Absorbance 0 Absorbance 340 nm 600 0,18Absorbance 0 Absorbance 335 nm)

[2] = Photostationary states by analytical HPLC at isosbestic points; assay type: physicochemical; conditions: single experiment; for PSS (E → Z): irradiation with 365 nm; for PSS (Z → E): irradiation with 528 nm
Protocol: as §1
Figure S18. UV/Vis spectr um and cycle performance of 7.
1.4.2. Photostationary States
Photostationary states (PSS) were measured on analytical HPLC. To determine the photostationary state of the photoswitches the samples (0.2 mM in Tris buffer + 2% DMSO) were irradiated first with 3 65 nm to get the Z -isomer (Peak 1). Afterwards, the sample was irradiated with 528 nm to get back to the E-isomer (Peak 2). The samples were measured at the isosbestic points.
Figure S19. Photostationary state of 1 after irradiation with 365 nm (switching to the Z - isomer).
Figure S20. Photostationary state of 1 after irradiation with 528 nm (switching to the E -isomer). […]

[3] = Thermal half-life of the metastable Z isomer; assay type: physicochemical; conditions: Tris buffer + 0.5% DMSO
Protocol: Figure S36. Photostationary state of 9 after irradiation with 528 nm (switching to the E -isomer).
1.4.3. Thermal Half-lives
For the determination of the thermal stability of the metastable Z isomer a 50 µM solution in Tris buffer
+ 0.5% DMSO was irradiated with 365 nm. For 4 weeks the absorption at 335 nm was measured every
ExpDec1 Fit of Sheet1 B 0,35 ExpDec1 Fit of Sheet1 B
Modell ExpDec1 Modell ExpDec1
Gle i c hung y = A 1 *e xp (-x/t1 ) + y0 Gle i c hung y = A 1 *e xp (-x/t1 ) + y0
Ze i c hne n B Ze i c hne n B
(also on this page, place not known: E-isomer). 0,45absorption 335 nm Gleichung A1*exp(-x/t1) Zeichnen (COD) 0,50absorption 335 nm Gleichung A1*exp(-x/t1) Zeichnen (COD)) […]

[4] = E-isomer, β2AR wild type, mean ± S.E.M.
[5] = HEK-293T, E-isomer, β2AR wild type, relative to maximum effect of norepinephrine, read-out: Emax
[6] = HEK-293T, Z-isomer, β2AR wild type, relative to maximum effect of norepinephrine, read-out: Emax
[7] = Z-isomer, β2AR wild type, mean ± S.E.M.
[8] = HEK-293T, reference agonists, β2AR wild-type, relative to norepinephrine, read-out: Emax

T1 sequence (P07550 whole entry): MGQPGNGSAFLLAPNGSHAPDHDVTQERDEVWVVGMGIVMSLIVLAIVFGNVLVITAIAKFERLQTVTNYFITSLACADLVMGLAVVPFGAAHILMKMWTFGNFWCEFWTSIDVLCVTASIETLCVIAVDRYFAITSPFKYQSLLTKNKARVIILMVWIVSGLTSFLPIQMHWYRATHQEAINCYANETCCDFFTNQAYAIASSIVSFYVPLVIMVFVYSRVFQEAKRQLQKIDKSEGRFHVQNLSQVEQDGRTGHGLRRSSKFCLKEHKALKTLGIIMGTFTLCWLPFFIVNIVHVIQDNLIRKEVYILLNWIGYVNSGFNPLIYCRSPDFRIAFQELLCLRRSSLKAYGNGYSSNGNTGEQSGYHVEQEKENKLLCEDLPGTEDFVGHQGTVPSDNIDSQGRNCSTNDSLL

| EC50 (human β2AR; [4]) | Emax (human β2AR; [5]) | Emax (human β2AR; [6]) | EC50 (human β2AR; [7]) | λmax (E) [1] | λmax (Z) [1] | PSS (E → Z) [2] | PSS (Z → E) [2] | t1/2 [3] | Emax (human β2AR; E-isomer, β2AR wild type, relative to maximum effect of norepinephrine) | Emax (human β2AR; Z-isomer, β2AR wild type, relative to maximum effect of norepinephrine) | EC50 (human β2AR; Z-isomer, β2AR wild type) | Emax (human β2AR; [8]) | SMILES |
| --- | --- | --- | --- | --- | --- | --- | --- | --- | --- | --- | --- | --- | --- |
| 7.2 ± 3 nM | 85 ± 2% | 78 ± 4% | 17 ± 6.3 nM | 337 nm | 434 nm | 95% | 89% | 15.2 days | – | – | – | – | Cc1nn(CCSSCCN)c(C)c1N=Nc1ccc(CCNCC(O)c2ccc(O)c3c2OCC(=O)N3)cc1 (mixture of isomers) [Compound 3] |
| 79 nM | – | – | – | – | – | – | – | – | – | – | – | – | Cc1nn(CCCCSSCCN)c(C)c1/N=N/c1ccc(CCNCC(O)c2ccc(O)c3c2OCC(=O)N3)cc1 (racemic) [Compound E-5] |
| – | – | – | – | – | – | – | – | – | 70% | – | – | – | Cc1nn(CCCCCSSCCN)c(C)c1/N=N/c1ccc(CCNCC(O)c2ccc(O)c3c2OCC(=O)N3)cc1 (racemic) [Compound E-6] |
| – | – | – | – | – | – | – | – | – | – | 85% | – | – | Cc1nn(CCCCCSSCCN)c(C)c1/N=N\c1ccc(CCNCC(O)c2ccc(O)c3c2OCC(=O)N3)cc1 (racemic) [Compound Z-6] |
| 630 ± 72 nM | 108 ± 3% | 78 ± 1% | 480 ± 110 nM | 335 nm | 435 nm | 89% | 90% | 3.9 days | – | – | – | – | Cc1nn(CCSSCCN(C)C)c(C)c1/N=N/c1ccc(CCNC[C@H](O)c2ccc(O)c(O)c2)cc1 [Compound 1, (R,E)-4-(2-((4-((1-(2-((2-(Dimethylamino)ethyl)disulfaneyl)ethyl)-3,5-dimethyl-1H-pyrazol-4-yl)diazenyl)phenethyl)amino)-1-hydroxyethyl)benzene-1,2-diol] |
| 940 ± 34 nM | 96 ± 2% | 97 ± 1% | 700 ± 35 nM | 335 nm | 433 nm | 89% | 87% | 4.9 days | – | – | – | – | Cc1nn(CCCSSCCN(C)C)c(C)c1/N=N/c1ccc(CCNC[C@H](O)c2ccc(O)c(O)c2)cc1 [Compound 2] |
| 39 ± 7 nM | 88 ± 3% | 87 ± 5% | 9.8 ± 0.9 nM | 339 nm | 436 nm | 96% | 92% | 15.7 days | – | – | – | – | Cc1nn(CCCSSCCN)c(C)c1/N=N/c1ccc(CCNCC(O)c2ccc(O)c3c2OCC(=O)N3)cc1 (centres unmarked) [Compound 4] |
| 79 ± 25 nM | 98 ± 1% | 93 ± 4% | 9.9 ± 1.7 nM | 338 nm | 436 nm | 94% | 92% | 16.7 days | – | – | – | – | Cc1nn(CCCCSSCCN)c(C)c1/N=N/c1ccc(CCNCC(O)c2ccc(O)c3c2OCC(=O)N3)cc1 (centres unmarked) [Compound 5] |
| 38 ± 5.8 nM | 70 ± 2% | 89 ± 1% | 21 ± 1.3 nM | 340 nm | 435 nm | 95% | 93% | 13.3 days | – | – | – | – | Cc1nn(CCCCCSSCCN)c(C)c1/N=N/c1ccc(CCNCC(O)c2ccc(O)c3c2OCC(=O)N3)cc1 (centres unmarked) [Compound 6] |
| 1500 nM | 103 ± 4% | 101 ± 10% | 4300 nM | 335 nm | 433 nm | 92% | 85% | 4.5 days | – | – | – | – | Cc1nn(CCN2C(=O)C=CC2=O)c(C)c1/N=N/c1ccc(CCNC[C@H](O)c2ccc(O)c(O)c2)cc1 [Compound 7] |
| 53 ± 2.6 nM | 84 ± 5% | 90 ± 2% | 75 ± 2.3 nM | 337 nm | 435 nm | 95% | 94% | 18.6 days | – | – | – | – | Cc1nn(CCN2C(=O)C=CC2=O)c(C)c1/N=N/c1ccc(CCNCC(O)c2ccc(O)c3c2OCC(=O)N3)cc1 (centres unmarked) [Compound 8] |
| 72 ± 12 nM | 88 ± 5% | 85 ± 5% | 57 ± 8.5 nM | 339 nm | 435 nm | 95% | 93% | 20.4 days | – | – | – | – | Cc1nn(CCCN2C(=O)C=CC2=O)c(C)c1/N=N/c1ccc(CCNCC(O)c2ccc(O)c3c2OCC(=O)N3)cc1 (centres unmarked) [Compound 9] |
| 7.2 nM | – | – | – | – | – | – | – | – | – | – | – | – | Cc1nn(CCSSCCN)c(C)c1/N=N/c1ccc(CCNCC(O)c2ccc(O)c3c2OCC(=O)N3)cc1 (centres unmarked) [Compound E-3] |
| – | – | – | – | – | – | – | – | – | – | – | 480 nM | – | Cc1nn(CCSSCCN(C)C)c(C)c1/N=N\c1ccc(CCNC[C@H](O)c2ccc(O)c(O)c2)cc1 [Compound Z-1] |
| – | – | – | – | – | – | – | – | – | – | – | 4300 nM | – | Cc1nn(CCN2C(=O)C=CC2=O)c(C)c1/N=N\c1ccc(CCNC[C@H](O)c2ccc(O)c(O)c2)cc1 [Compound Z-7] |
| – | – | – | – | – | – | – | – | – | – | – | – | 103% | CNC[C@H](O)c1ccc(O)c(O)c1 [epinephrine, reference compound] |
| – | – | – | – | – | – | – | – | – | – | – | – | 100% | NC[C@H](O)c1ccc(O)c(O)c1 [norepinephrine, reference compound] |
